Reference: ChEMBL document CHEMBL1131296 (J Med Chem, 1998)
pKi: −log10 of the molar value.

Tests used:
[1] = biological target: T1, Alpha-1A adrenergic receptor (Homo sapiens, UniProt P35348); assay: Binding affinity at human cloned Alpha-1A adrenergic receptor in chinese hamster ovary cells by [3H]-prazosin displacement.; type: cell-based, CHO
T1 sequence (P35348 whole entry): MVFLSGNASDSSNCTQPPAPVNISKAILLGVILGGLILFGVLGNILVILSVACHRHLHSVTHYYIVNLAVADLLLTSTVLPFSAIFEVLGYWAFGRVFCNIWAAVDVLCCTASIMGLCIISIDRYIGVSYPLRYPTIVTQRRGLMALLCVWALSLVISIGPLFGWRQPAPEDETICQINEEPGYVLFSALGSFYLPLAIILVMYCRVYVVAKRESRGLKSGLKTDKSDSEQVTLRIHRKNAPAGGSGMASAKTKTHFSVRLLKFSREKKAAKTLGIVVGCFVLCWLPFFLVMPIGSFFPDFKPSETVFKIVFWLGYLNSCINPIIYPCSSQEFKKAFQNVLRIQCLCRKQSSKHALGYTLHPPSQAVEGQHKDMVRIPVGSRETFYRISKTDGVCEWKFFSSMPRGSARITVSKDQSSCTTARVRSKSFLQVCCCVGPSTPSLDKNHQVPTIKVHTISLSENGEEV

[2] = biological target: T2, Alpha-1D adrenergic receptor (Rattus norvegicus, UniProt P23944); assay: Antagonism of norepinephrine induced contraction of rat isolated thoracic aorta.; type: functional, tissue-based; conditions: read-out: pA2 (converted)
T2 sequence (P23944 whole entry): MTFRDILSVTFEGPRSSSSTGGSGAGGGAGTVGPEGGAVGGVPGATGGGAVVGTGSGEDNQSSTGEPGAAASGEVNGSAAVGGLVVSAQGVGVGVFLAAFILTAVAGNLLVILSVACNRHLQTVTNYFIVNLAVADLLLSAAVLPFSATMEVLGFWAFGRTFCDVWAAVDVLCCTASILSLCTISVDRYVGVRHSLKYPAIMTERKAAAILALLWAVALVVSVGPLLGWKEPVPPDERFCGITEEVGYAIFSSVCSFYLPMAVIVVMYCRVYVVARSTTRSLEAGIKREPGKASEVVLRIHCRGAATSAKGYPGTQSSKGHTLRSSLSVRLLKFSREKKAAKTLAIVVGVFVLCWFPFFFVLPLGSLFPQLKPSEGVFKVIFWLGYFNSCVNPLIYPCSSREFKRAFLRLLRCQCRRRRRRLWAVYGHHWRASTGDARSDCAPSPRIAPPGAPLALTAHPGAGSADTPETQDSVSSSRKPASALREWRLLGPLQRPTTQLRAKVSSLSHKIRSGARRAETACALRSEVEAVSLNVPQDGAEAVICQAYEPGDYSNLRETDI

[3] = biological target: T3, Alpha-1B adrenergic receptor (Homo sapiens, UniProt P35368); assay: Binding affinity at human cloned Alpha-1B adrenergic receptor in chinese hamster ovary cells by [3H]prazosin displacement.; type: cell-based, CHO
T3 sequence (P35368 whole entry): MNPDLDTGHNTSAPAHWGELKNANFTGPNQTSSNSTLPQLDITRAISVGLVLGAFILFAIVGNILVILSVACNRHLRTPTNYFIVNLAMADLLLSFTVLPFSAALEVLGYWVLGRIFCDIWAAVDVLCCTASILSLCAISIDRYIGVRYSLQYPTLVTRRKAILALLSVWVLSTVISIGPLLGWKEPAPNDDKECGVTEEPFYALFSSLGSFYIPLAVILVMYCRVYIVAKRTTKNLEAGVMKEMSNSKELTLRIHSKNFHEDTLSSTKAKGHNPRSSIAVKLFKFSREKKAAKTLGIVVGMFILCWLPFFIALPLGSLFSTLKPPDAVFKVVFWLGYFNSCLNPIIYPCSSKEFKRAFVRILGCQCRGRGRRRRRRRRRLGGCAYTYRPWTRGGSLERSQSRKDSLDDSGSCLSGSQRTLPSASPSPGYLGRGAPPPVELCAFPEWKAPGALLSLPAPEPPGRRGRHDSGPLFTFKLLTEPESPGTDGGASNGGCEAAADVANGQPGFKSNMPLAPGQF

[4] = biological target: T4, Alpha-1B adrenergic receptor (Rattus norvegicus, UniProt P15823); assay: Antagonism of phenylephrine stimulated contraction of the rat isolated spleen.; type: functional, tissue-based; conditions: read-out: pA2 (converted)
T4 sequence (P15823 whole entry): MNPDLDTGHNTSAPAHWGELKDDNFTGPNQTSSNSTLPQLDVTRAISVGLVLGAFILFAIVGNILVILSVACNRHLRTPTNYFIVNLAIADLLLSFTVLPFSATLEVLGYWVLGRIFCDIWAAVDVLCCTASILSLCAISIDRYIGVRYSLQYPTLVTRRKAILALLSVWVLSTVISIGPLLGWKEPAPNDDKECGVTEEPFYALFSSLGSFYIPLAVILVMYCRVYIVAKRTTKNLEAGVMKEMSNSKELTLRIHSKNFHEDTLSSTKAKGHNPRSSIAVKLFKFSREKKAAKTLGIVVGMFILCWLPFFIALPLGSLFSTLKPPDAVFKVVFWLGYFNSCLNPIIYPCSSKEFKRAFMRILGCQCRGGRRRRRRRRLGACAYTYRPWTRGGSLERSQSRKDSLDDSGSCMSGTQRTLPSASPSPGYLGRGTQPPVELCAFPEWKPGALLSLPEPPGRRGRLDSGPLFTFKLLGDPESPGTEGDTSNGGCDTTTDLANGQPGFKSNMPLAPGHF

[5] = biological target: D(2) dopamine receptor (Rattus norvegicus, UniProt P61169); assay: Binding affinity at native Dopamine receptor D2 in rat striatum by [3H]spiperone displacement.; type: tissue-based
D(2) dopamine receptor, sequence (P61169 whole entry): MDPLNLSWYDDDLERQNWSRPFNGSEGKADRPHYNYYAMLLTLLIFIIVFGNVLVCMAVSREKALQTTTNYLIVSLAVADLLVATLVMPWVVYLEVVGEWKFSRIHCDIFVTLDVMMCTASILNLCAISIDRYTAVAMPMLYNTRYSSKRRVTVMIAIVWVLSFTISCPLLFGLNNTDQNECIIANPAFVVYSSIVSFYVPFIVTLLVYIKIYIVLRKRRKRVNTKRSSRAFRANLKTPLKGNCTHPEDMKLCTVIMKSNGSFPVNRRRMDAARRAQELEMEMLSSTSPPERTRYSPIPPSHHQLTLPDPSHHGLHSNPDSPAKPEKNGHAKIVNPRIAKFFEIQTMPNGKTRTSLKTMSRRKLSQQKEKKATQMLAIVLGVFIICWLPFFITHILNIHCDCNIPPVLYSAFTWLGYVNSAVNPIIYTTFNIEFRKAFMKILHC

pKi [1]: 9.49 | Kb [2]: 5.5 nM | pKi [3]: 9.78 | Kb [4]: 37.2 nM | pKi [5]: 5.71
SMILES: COc1cc2nc(N(C)CCCCCCN(C)C(=O)c3cccc(CN(C)C)c3)nc(N)c2cc1OC
